From patent US20150197492A1, “NOVEL INDENO[1,2-c]QUINOLIN-11-ONE DERIVATIVES, PREPARATION METHOD AND APPLICATION THEREOF” (National Defense Medical Center, priority 2014, published 2015)

Key:
Assay in all cases: cells
Format in all cases: cell-based
HT29 = HT29 (Colon Cancer), 10 μM, 48 hours
HS 578T = HS 578T (Breast Cancer), 10 μM, 48 hours
TK-10 = TK-10 (Renal Cancer), 10 μM, 48 hours
IGROV1 = IGROV1 (Ovarian Cancer), 10 μM, 48 hours
U251 = U251 (CNS Cancer), 10 μM, 48 hours
MDA-MB-231/ATCC = MDA-MB-231/ATCC (Breast Cancer), 10 μM, 48 hours
RPMI-8226 = RPMI-8226 (Leukemia), 10 μM, 48 hours
A549/ATCC = A549/ATCC (Non-Small Cell Lung Cancer), 10 μM, 48 hours
PC-3 = PC-3 (Prostate Cancer), 10 μM, 48 hours
COLO 205 = COLO 205 (Colon Cancer), 10 μM, 48 hours
HCT-116 = HCT-116 (Colon Cancer), 10 μM, 48 hours
OVCAR-3 = OVCAR-3 (Ovarian Cancer), 10 μM, 48 hours
SW-620 = SW-620 (Colon Cancer), 10 μM, 48 hours
NCI-H322M = NCI-H322M (Non-Small Cell Lung Cancer), 10 μM, 48 hours
A498 = A498 (Renal Cancer), 10 μM, 48 hours
UACC-62 = UACC-62 (Melanoma), 10 μM, 48 hours
K-562 = K-562 (Leukemia), 10 μM, 48 hours
HL-60 (TB) = HL-60 (TB) (Leukemia), 10 μM, 48 hours
LOX IMVI = LOX IMVI (Melanoma), 10 μM, 48 hours
SK-MEL-28 = SK-MEL-28 (Melanoma), 10 μM, 48 hours
SK-OV-3 = SK-OV-3 (Ovarian Cancer), 10 μM, 48 hours
OVCAR-4 = OVCAR-4 (Ovarian Cancer), 10 μM, 48 hours
NCI-H460 = NCI-H460 (Non-Small Cell Lung Cancer), 10 μM, 48 hours
MDA-MB-468 = MDA-MB-468 (Breast Cancer), 10 μM, 48 hours
SF-268 = SF-268 (CNS Cancer), 10 μM, 48 hours
MDA-MB-435 = MDA-MB-435 (Melanoma), 10 μM, 48 hours
BT-549 = BT-549 (Breast Cancer), 10 μM, 48 hours
HCC-2998 = HCC-2998 (Colon Cancer), 10 μM, 48 hours
NCI-H23 = NCI-H23 (Non-Small Cell Lung Cancer), 10 μM, 48 hours
SR = SR (Leukemia), 10 μM, 48 hours
SNB-75 = SNB-75 (CNS Cancer), 10 μM, 48 hours
MOLT-4 = MOLT-4 (Leukemia), 10 μM, 48 hours

Row | SMILES | growth percentage (HT29) [%] | growth percentage (HS 578T) [%] | growth percentage (TK-10) [%] | growth percentage (IGROV1) [%] | growth percentage (U251) [%] | growth percentage (MDA-MB-231/ATCC) [%] | growth percentage (RPMI-8226) [%] | growth percentage (A549/ATCC) [%] | growth percentage (PC-3) [%] | growth percentage (COLO 205) [%] | growth percentage (HCT-116) [%] | growth percentage (OVCAR-3) [%] | growth percentage (SW-620) [%] | growth percentage (NCI-H322M) [%] | growth percentage (A498) [%] | growth percentage (UACC-62) [%] | growth percentage (K-562) [%] | growth percentage (HL-60 (TB)) [%] | growth percentage (LOX IMVI) [%] | growth percentage (SK-MEL-28) [%] | other results
1 | CNc1nc2ccccc2c2c1-c1ccc(Cl)cc1C2=O [SJ-1, 9-Chloro-6-(methylamino)-11H-indeno[1,2-c]quinolin-11-one] | 99.44 | 85.28 | 65.31 | 54.41 | 96.03 | 83.87 | 91.82 | 96.83 | 89.44 | 66.47 | 88.31 | 84.91 | 96.25 | 80.85 | 82.03 | 77.41 | 90.99 | 102.75 | 93.40 | 114.89 | growth percentage (SK-OV-3): 92.62%; growth percentage (OVCAR-4): 72.83%; growth percentage (NCI-H460): 84.38%; growth percentage (MDA-MB-468): -31.61%; growth percentage (SF-268): 97.27%; growth percentage (MDA-MB-435): 107.24%; growth percentage (BT-549): 101.88%; growth percentage (HCC-2998): 57.51%; growth percentage (NCI-H23): 86.83%; growth percentage (SR): 91.67%; growth percentage (SNB-75): 79.70%; growth percentage (MOLT-4): 93.26%
2 | CN(C)c1nc2ccccc2c2c1-c1ccc(Cl)cc1C2=O [SJ-2, 9-Chloro-6-(dimethylamino)-11H-indeno[1,2-c]quinolin-11-one] | 94.89 | 72.84 | 91.84 | 83.38 | 98.98 | 76.68 | 88.05 | 98.85 | 82.55 | 100.97 | 98.57 | 103.48 | 96.35 | 78.83 | 96.00 | 78.16 | 88.81 | 95.49 | 85.45 | 113.43 | growth percentage (SK-OV-3): 99.12%; growth percentage (OVCAR-4): 84.28%; growth percentage (NCI-H460): 94.17%; growth percentage (MDA-MB-468): 0.60%; growth percentage (SF-268): 100.26%; growth percentage (MDA-MB-435): 97.33%; growth percentage (BT-549): 102.55%; growth percentage (HCC-2998): 81.50%; growth percentage (NCI-H23): 82.62%; growth percentage (SR): 86.12%; growth percentage (SNB-75): 69.12%; growth percentage (MOLT-4): 88.92%
